Measured values published in PubChem BioAssay (NCI).
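Grown in 96-well plates, cells were treated for 48 hours with each compound at five concentrations. Insufficient inhibition: endpoint recorded as highest concentration tested. At the TGI there is no net growth.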

How the values were obtained:
Assay in all cases: growth of human tumour cells (NCI), 48 h
UACC-62 melanoma = test system: UACC-62 melanoma
TK-10 renal = test system: TK-10 renal
A498 renal = test system: A498 renal
SF-539 CNS = test system: SF-539 CNS
HOP-92 NSCLC = test system: HOP-92 NSCLC
CAKI-1 renal = test system: CAKI-1 renal
SR leukemia = test system: SR leukemia
SK-OV-3 ovarian = test system: SK-OV-3 ovarian
HCC-2998 colon = test system: HCC-2998 colon
HL-60(TB) leukemia = test system: HL-60(TB) leukemia
DU-145 prostate = test system: DU-145 prostate
OVCAR-5 ovarian = test system: OVCAR-5 ovarian
SK-MEL-5 melanoma = test system: SK-MEL-5 melanoma
HS 578T breast = test system: HS 578T breast
IGROV1 ovarian = test system: IGROV1 ovarian
MDA-MB-435 = test system: MDA-MB-435
UACC-257 melanoma = test system: UACC-257 melanoma
OVCAR-3 ovarian = test system: OVCAR-3 ovarian
COLO 205 colon = test system: COLO 205 colon
MDA-N = test system: MDA-N
CCRF-CEM leukemia = test system: CCRF-CEM leukemia
NCI/ADR-RES ovarian = test system: NCI/ADR-RES ovarian
SF-295 CNS = test system: SF-295 CNS
SF-268 CNS = test system: SF-268 CNS
ACHN renal = test system: ACHN renal
M14 melanoma = test system: M14 melanoma
HOP-62 NSCLC = test system: HOP-62 NSCLC
LOX IMVI melanoma = test system: LOX IMVI melanoma
HT29 colon = test system: HT29 colon
NCI-H460 lung = test system: NCI-H460 lung
OVCAR-8 ovarian = test system: OVCAR-8 ovarian
HCT-116 colon = test system: HCT-116 colon
KM12 colon = test system: KM12 colon
MCF7 breast = test system: MCF7 breast
OVCAR-4 ovarian = test system: OVCAR-4 ovarian
MALME-3M melanoma = test system: MALME-3M melanoma
NCI-H522 lung = test system: NCI-H522 lung
786-0 renal = test system: 786-0 renal
RXF 393 renal = test system: RXF 393 renal
HCT-15 colon = test system: HCT-15 colon
SK-MEL-2 melanoma = test system: SK-MEL-2 melanoma
MDA-MB-231 breast = test system: MDA-MB-231 breast
SNB-75 CNS = test system: SNB-75 CNS
A549 NSCLC = test system: A549 NSCLC
RPMI-8226 leukemia = test system: RPMI-8226 leukemia
K-562 leukemia = test system: K-562 leukemia
SW-620 colon = test system: SW-620 colon
T-47D breast = test system: T-47D breast
MOLT-4 leukemia = test system: MOLT-4 leukemia
SN12C renal = test system: SN12C renal
SK-MEL-28 melanoma = test system: SK-MEL-28 melanoma
EKVX NSCLC = test system: EKVX NSCLC
NCI-H226 lung = test system: NCI-H226 lung

Q: Which TGI (UACC-62 melanoma) does the source give for `CC[C@H](C)[C@H]1NC(=O)[C@@H](NC(=O)[C@@H](CC(C)C)N(C)C(=O)C2CCCN2C(=O)[C@H](C)O)[C@@H](C)OC(=O)[C@@H]2Cc3ccccc3CN2C(=O)[C@@H]2CCCN2C(=O)[C@H](CC(C)C)NC(=O)[C@@H](C)C(=O)[C@H](C(C)C)OC(=O)C[C@@H]1O` (stereo partly drawn) here?
A: Its TGI is 4.47 µM.

Q: And the TGI (TK-10 renal)?
A: Its TGI is greater than 70.1 µM.

Q: And the TGI (A498 renal)?
A: Its TGI is 5.96 µM.

Q: What about the TGI (SF-539 CNS) of the same molecule?
A: Its TGI is 8.42 µM.

Q: And the TGI (HOP-92 NSCLC)?
A: The TGI was 28.8 µM.

Q: What about the TGI (CAKI-1 renal) of the same molecule?
A: Its TGI is greater than 50 µM.

Q: And the TGI (SR leukemia)?
A: Its TGI is 1.08 µM.

Q: What about the TGI (SK-OV-3 ovarian) of the same molecule?
A: The TGI was greater than 42 µM.

Q: What about the TGI (HCC-2998 colon) of the same molecule?
A: The TGI was 3.26 µM.

Q: And the TGI (HL-60(TB) leukemia)?
A: Its TGI is 0.433 µM.

Q: What about the TGI (DU-145 prostate) of the same molecule?
A: The TGI was 6.31 µM.

Q: And the TGI (OVCAR-5 ovarian)?
A: The TGI was 12.7 µM.

Q: What about the TGI (SK-MEL-5 melanoma) of the same molecule?
A: Its TGI is 2.86 µM.

Q: And the TGI (HS 578T breast)?
A: The TGI was greater than 38.4 µM.

Q: What about the TGI (IGROV1 ovarian) of the same molecule?
A: The TGI was greater than 73.7 µM.

Q: What about the TGI (MDA-MB-435) of the same molecule?
A: The TGI was 8.1 µM.

Q: And the TGI (UACC-257 melanoma)?
A: The TGI was 6.11 µM.

Q: And the TGI (OVCAR-3 ovarian)?
A: The TGI was 6.68 µM.

Q: And the TGI (COLO 205 colon)?
A: Its TGI is 2.61 µM.

Q: And the TGI (MDA-N)?
A: Its TGI is 12.5 µM.

Q: And the TGI (CCRF-CEM leukemia)?
A: The TGI was 1.66 µM.

Q: And the TGI (NCI/ADR-RES ovarian)?
A: Its TGI is greater than 100 µM.

Q: And the TGI (SF-295 CNS)?
A: The TGI was greater than 28.6 µM.

Q: And the TGI (SF-268 CNS)?
A: The TGI was 6.34 µM.

Q: What about the TGI (ACHN renal) of the same molecule?
A: The TGI was 15.5 µM.

Q: What about the TGI (M14 melanoma) of the same molecule?
A: Its TGI is 13.3 µM.

Q: And the TGI (HOP-62 NSCLC)?
A: Its TGI is 12 µM.

Q: What about the TGI (LOX IMVI melanoma) of the same molecule?
A: Its TGI is 9.11 µM.

Q: What about the TGI (HT29 colon) of the same molecule?
A: The TGI was 10.7 µM.

Q: And the TGI (NCI-H460 lung)?
A: The TGI was 5.09 µM.

Q: What about the TGI (OVCAR-8 ovarian) of the same molecule?
A: Its TGI is greater than 54.8 µM.

Q: And the TGI (HCT-116 colon)?
A: The TGI was 5.08 µM.

Q: And the TGI (KM12 colon)?
A: Its TGI is 5.13 µM.

Q: What about the TGI (MCF7 breast) of the same molecule?
A: The TGI was 12.8 µM.

Q: What about the TGI (OVCAR-4 ovarian) of the same molecule?
A: The TGI was greater than 25 µM.

Q: What about the TGI (MALME-3M melanoma) of the same molecule?
A: The TGI was 5.16 µM.

Q: And the TGI (NCI-H522 lung)?
A: Its TGI is greater than 49.3 µM.

Q: And the TGI (786-0 renal)?
A: Its TGI is 11.1 µM.

Q: And the TGI (RXF 393 renal)?
A: The TGI was 6.48 µM.

Q: And the TGI (HCT-15 colon)?
A: Its TGI is greater than 100 µM.

Q: And the TGI (SK-MEL-2 melanoma)?
A: The TGI was 1.55 µM.

Q: And the TGI (MDA-MB-231 breast)?
A: Its TGI is 10.3 µM.

Q: What about the TGI (SNB-75 CNS) of the same molecule?
A: The TGI was 1.94 µM.

Q: And the TGI (A549 NSCLC)?
A: The TGI was 21.3 µM.

Q: And the TGI (RPMI-8226 leukemia)?
A: Its TGI is 10.4 µM.

Q: And the TGI (K-562 leukemia)?
A: The TGI was greater than 41.2 µM.

Q: What about the TGI (SW-620 colon) of the same molecule?
A: The TGI was greater than 42.6 µM.

Q: What about the TGI (T-47D breast) of the same molecule?
A: The TGI was greater than 100 µM.

Q: And the TGI (MOLT-4 leukemia)?
A: Its TGI is 5 µM.

Q: What about the TGI (SN12C renal) of the same molecule?
A: The TGI was 5.56 µM.

Q: And the TGI (SK-MEL-28 melanoma)?
A: The TGI was 23.1 µM.

Q: And the TGI (EKVX NSCLC)?
A: The TGI was greater than 55 µM.

Q: And the TGI (NCI-H226 lung)?
A: The TGI was 6.4 µM.
